For 35 molecules, absorption maximum results are on record in the Deep4Chem optical property database.

The nature of the data set: solvent given as SMILES.

For `F[B-]1(F)OC(C#Cc2ccccc2)=C2CCc3ccccc3C2=[O+]1`, the absorption maximum (in ClCCl) was 431 nm.
As to `C(=C(c1ccccc1)c1ccccc1)c1ccc(-c2ccc(-c3nc4c5ccccc5c5ccccc5c4n3-c3cccc(-c4ccc(C=C(c5ccccc5)c5ccccc5)cc4)c3)cc2)cc1`, where the note is “in C1CCOC1”, the absorption maximum was 340 nm.
Consider `c1cc2cc(c1)c1ccc3c(c1)c1cc(ccc1[C@]14OCCO[C@]31OCCO4)c1ccc3c(c1)c1cc(ccc1[C@]14OCCO[C@]31OCCO4)c1cccc2c1`, for which, where the note is “in ClC(Cl)Cl”, the absorption maximum is listed as 260 nm.
Under “in CC#N”, `N#Cc1cccc(-c2pc3ccccc3s2)c1` (stereo not drawn) came in with an absorption maximum of 324 nm.
For the setting “in ClCCl”, `COCCOCCOCN1C(=O)c2ccc3c(-c4ccccc4)c4c5ccc6c7c(ccc(c(-c8ccccc8)c4c4ccc(c2c34)C1=O)c75)C(=O)N(COCCOCCOC)C6=O` gave an absorption maximum of 630 nm.
Turning to `Cc1ccc(C)n1-c1ccc(C#N)cc1`, the absorption maximum reads like this: (in C1CCOC1) 275 nm; (in CCCCCC) 275 nm; (in CCCCCl) 275 nm; (in CCOCC) 275 nm.
`Cc1ccc(C)c(C)c1` came in with an absorption maximum (in C1CCCCC1) of 263.78 nm.
Turning to `CCCC1=Cc2nc1ccc1[nH]c(cc1CCC)c1nc(c(NC(C)=O)cc3[nH]c2cc3CCC)C(CCC)=C1`, the absorption maximum (in Cc1ccccc1) worked out at 639 nm.
Where the note is “in CC#N”, `COc1ccc(-n2nc(C#N)c(N3CCCC3)n2)cc1OC` registered an absorption maximum of 344 nm.
For the setting “in CO”, `CS1(C)C(/C=C/C2=C(c3ccc(C(=O)O)cc3)C(=C/C=C3/N(CCCCS(=O)(=O)[O-])c4ccccc4S3(C)C)/CCC2)=[N+](CCCCS(=O)(=O)[O-])c2ccccc21` had an absorption maximum of 800 nm.
As to `CCNc1cc2c(cc1C)C(c1ccccc1C(=O)O)=C1CCCC(/C=C/C3=[N+](C)c4ccccc4C3(C)C)=C1O2`, the absorption maximum is, setting by setting: (in CC#N) 696 nm; (in CCO) 688 nm; (in CO) 690 nm; (in ClC(Cl)Cl) 702 nm.
Consider `I[I-]I`, for which the absorption maximum (in O) is given as 351.77 nm.
Regarding `N#Cc1c(C#N)c2cc(Cl)c(Cl)cc2c2cc(Cl)c(Cl)cc12`, the absorption maximum (in ClC(Cl)Cl) was 343 nm.
For the setting “in CC#N”, `FC(F)(F)c1ccc(-c2pc3ccccc3s2)cc1` (stereo not drawn) registered an absorption maximum of 331 nm.
On the same count and under the same terms, to `N#C/C(=C\c1ccc(Cl)cc1)c1nc(-c2ccccc2)c(-c2ccccc2)s1` belongs 365 nm.
Where the note is “in ClCCl”, `CC(=O)c1ccc(-c2cc3c(ccc4sccc43)s2)cc1` displayed an absorption maximum of 350 nm.
`O=C1Nc2ccccc2/C1=C/C(=O)c1ccc(Cl)cc1` registered an absorption maximum (in C1CCCCC1) of 335 nm; an absorption maximum (in C1COCCO1) of 335 nm; an absorption maximum (in CC#N) of 332 nm; an absorption maximum (in CC(C)(C)O) of 339 nm; an absorption maximum (in CC(C)O) of 339 nm; an absorption maximum (in CCCCCC) of 334 nm. This molecule also showed an absorption maximum (in CCCCO) of 339 nm; an absorption maximum (in CCOC(C)=O) of 335 nm; an absorption maximum (in CN(C)C=O) of 337 nm; an absorption maximum (in CO) of 340 nm; an absorption maximum (in ClCCl) of 338 nm; an absorption maximum (in O) of 341 nm.
`CC\C=C/C=C/C=C/C=C\CCCCCCCC(=O)O`: the absorption maximum is 322.7 nm (in C1COCCO1); 318.9 nm (in CCCCCC); 320.8 nm (in CCCCCCCCCC); 320.6 nm (in CCCCO); 319.2 nm (in CCO); 318.8 nm (in CCOCC). Further, the absorption maximum by setting is: (in CO) 318.6 nm; (in ClC(Cl)Cl) 324.8 nm; (in c1ccccc1) 325.3 nm.
In the case of `Cc1ccc2c(c1)nc1c(=O)n(C)c(=O)nc-1n2C`, where the note is “in CC#N”, the absorption maximum came to 446 nm.
For the molecule `N#Cc1ccc(-n2c(-c3ccc(-c4ccc(-n5c6ccccc6c6ccccc65)cc4)s3)nc3c4ccccc4c4ccccc4c32)c2ccccc12`, the absorption maximum (in ClCCl) was 301 nm.
Molecule `N#Cc1c(N2CCCCC2)cc(-c2ccc3ccc4cccc5ccc2c3c45)c2c1C(=O)c1ccccc1-2` gave an absorption maximum (in C1CCOC1) of 344 nm.
The molecule `C#CCOc1ccc(/C=C/C2=[N+]3C(=C(c4ccccc4)c4c(C)cc(C)n4[B-]3(F)F)C(C)=C2)cc1` registered an absorption maximum (in CO) of 563 nm.
With `COC(=O)C(NC(=O)OC(C)(C)C)c1ccc2oc(-c3cc(OC)ccc3OC)nc2c1` (stereo not drawn), the absorption maximum (in CC1CCCCC1) was 332 nm, the absorption maximum (in CC#N) is given as 333 nm and the absorption maximum (in CO) amounted to 337 nm.
Regarding `CN(C)c1ccc(-c2c(/C=C3/C=Cc4ccccc4N3C)c(=O)c2=O)cc1`, the absorption maximum is 358 nm (in C1CCCCC1), 362 nm (in Cc1ccccc1) and 509 nm (in ClCCl).
`COc1ccsc1-c1ccc(-c2ccc(-c3sccc3OC)s2)s1` yielded an absorption maximum (in CCCCCCCCCCCCCC) of 409 nm.
`CC(C)[Si](C#Cc1c2nc3c(nc2c(C#C[Si](C(C)C)(C(C)C)C(C)C)c2nc4ccccc4nc12)C1c2ccccc2C3c2ccccc21)(C(C)C)C(C)C` came in with an absorption maximum (in CCCCCC) of 551 nm.
As for `Cc1ccc(-c2cc(C)[o+]c(C)c2)cc1`, the absorption maximum reads like this: (in CC#N) 347 nm; (in ClCCl) 365 nm.
As to `CCCCCCC(CCCCCC)N1C(=O)c2cccc3c(-c4ccc(C#N)cc4)ccc(c23)C1=O`, the absorption maximum was found to be 355.6 nm (in CCCCCC); 356.2 nm (in CCCCCCCCCCCCCC); 365.8 nm (in CCCCCCCCCCCO); 367.8 nm (in CCCCO); 367.8 nm (in CN(C)C=O); 364.6 nm (in Cc1ccccc1). This molecule had an absorption maximum (in ClC(Cl)Cl) of 366.4 nm.
`C(=C\c1ccc(-c2ccccc2)cc1)/c1ccc(Oc2ccc3ccccc3c2-c2c(Oc3ccc(/C=C/c4ccc(-c5ccccc5)cc4)cc3)ccc3ccccc23)cc1`: the absorption maximum (in ClCCl) was found to be 328 nm.
Take `CN(C)CCCN1c2ccccc2Sc2ccc(Cl)cc21`: the absorption maximum reads like this: (in CC#N) 312 nm; (in CO) 311 nm; (in O) 307 nm.
Where the note is “in ClCCl”, `CN(C)c1ccc(-c2ccc(/C=C/c3ccncn3)cc2)cc1` had an absorption maximum of 386 nm.
Consider `N#Cc1c(-n2nnc3cc(Cl)ccc32)n([C@H]2C[C@H](O)[C@@H](CO)O2)c2ncnc(N)c12`, for which the absorption maximum (in CO) came to 276 nm.
Regarding `CCC1(CC)c2cc(C#Cc3cccs3)ccc2-c2c1c1c(c3c2C(CC)(CC)c2cc(C#Cc4cccs4)ccc2-3)C(CC)(CC)c2cc(C#Cc3cccs3)ccc2-1`, the absorption maximum (in C1CCOC1) turned out to be 362 nm.
In the case of `Cc1cc(C)c(N(c2ccccc2)c2ccc(S(=O)(=O)c3ccc(S(=O)(=O)c4ccc(N(c5ccccc5)c5c(C)cc(C)cc5C)cc4)cc3)cc2)c(C)c1`, the absorption maximum (in Cc1ccccc1) was determined as 351 nm.
Turning to `C[Si]1(C)c2ccc(-c3ccc(-c4cccs4)s3)cc2C=Cc2cc(-c3ccc(-c4cccs4)s3)ccc21`, the absorption maximum (in ClCCl) is reported as 398 nm.
